How the values were obtained:
[1] = Displacement of [3H]Ro151788 from CBR in rat […]; type: tissue-based
[2] = target: Beta-3 adrenergic receptor (Homo sapiens) (UniProt P13945); test: Inhibition of beta3 adrenergic receptor at 10 uM
[3] = target: D(1A) dopamine receptor (Homo sapiens) (UniProt P21728); test: Inhibition of D1 dopamine receptor at 10 uM
[4] = target: D(2) dopamine receptor (Homo sapiens) (UniProt P14416); test: Inhibition of D2 dopamine receptor at 10 uM
[5] = target: D(3) dopamine receptor (Homo sapiens) (UniProt P35462); test: Inhibition of D3 dopamine receptor at 10 uM
Sequence of D(3) dopamine receptor (Homo sapiens) (P35462 whole entry): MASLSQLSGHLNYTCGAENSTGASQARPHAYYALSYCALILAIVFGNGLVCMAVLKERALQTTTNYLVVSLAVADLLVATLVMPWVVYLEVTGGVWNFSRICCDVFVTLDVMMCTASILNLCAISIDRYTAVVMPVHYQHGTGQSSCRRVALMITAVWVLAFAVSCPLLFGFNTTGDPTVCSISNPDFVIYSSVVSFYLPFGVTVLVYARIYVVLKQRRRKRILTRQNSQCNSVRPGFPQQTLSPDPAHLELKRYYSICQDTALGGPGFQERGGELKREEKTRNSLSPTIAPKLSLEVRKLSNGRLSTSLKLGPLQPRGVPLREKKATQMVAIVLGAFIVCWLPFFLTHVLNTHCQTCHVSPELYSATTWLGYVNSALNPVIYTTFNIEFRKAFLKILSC

[6] = target: T1, D(4) dopamine receptor (Homo sapiens) (UniProt P21917); test: Inhibition of D4 dopamine receptor at 10 uM
T1 sequence (whole entry): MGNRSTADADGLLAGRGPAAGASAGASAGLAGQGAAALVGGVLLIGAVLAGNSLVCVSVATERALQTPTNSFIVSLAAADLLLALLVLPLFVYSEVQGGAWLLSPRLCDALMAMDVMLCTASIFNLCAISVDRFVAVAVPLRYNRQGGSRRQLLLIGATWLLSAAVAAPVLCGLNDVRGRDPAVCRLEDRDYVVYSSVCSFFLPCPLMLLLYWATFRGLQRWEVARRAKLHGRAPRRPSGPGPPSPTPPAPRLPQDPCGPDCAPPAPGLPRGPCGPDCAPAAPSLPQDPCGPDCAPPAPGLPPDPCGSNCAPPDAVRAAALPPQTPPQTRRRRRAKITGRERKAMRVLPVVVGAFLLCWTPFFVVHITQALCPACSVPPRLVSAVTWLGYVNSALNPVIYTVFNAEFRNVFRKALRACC

[7] = target: Sodium-dependent dopamine transporter (Homo sapiens) (UniProt Q01959); test: Inhibition of dopamine transporter at 10 uM
Sequence of Sodium-dependent dopamine transporter (Homo sapiens) (Q01959 whole entry): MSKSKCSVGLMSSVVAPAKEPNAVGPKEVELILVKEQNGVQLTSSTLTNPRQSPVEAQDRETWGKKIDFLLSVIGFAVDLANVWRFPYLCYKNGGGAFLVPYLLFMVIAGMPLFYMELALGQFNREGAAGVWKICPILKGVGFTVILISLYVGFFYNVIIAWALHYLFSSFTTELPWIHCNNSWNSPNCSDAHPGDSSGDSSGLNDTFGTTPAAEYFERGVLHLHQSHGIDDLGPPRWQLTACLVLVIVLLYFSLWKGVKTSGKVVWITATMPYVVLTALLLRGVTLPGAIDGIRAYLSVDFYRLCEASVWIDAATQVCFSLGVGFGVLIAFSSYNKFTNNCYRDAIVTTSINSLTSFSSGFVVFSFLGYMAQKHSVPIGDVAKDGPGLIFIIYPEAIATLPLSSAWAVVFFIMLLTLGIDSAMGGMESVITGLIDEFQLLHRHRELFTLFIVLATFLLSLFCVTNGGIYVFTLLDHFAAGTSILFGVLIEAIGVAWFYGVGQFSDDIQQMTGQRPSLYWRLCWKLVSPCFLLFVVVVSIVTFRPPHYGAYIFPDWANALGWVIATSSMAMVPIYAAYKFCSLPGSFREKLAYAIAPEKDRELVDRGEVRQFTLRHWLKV

[8] = target: Histamine H1 receptor (Homo sapiens) (UniProt P35367); test: Inhibition of H1 receptor at 10 uM
Sequence of Histamine H1 receptor (Homo sapiens) (P35367 whole entry): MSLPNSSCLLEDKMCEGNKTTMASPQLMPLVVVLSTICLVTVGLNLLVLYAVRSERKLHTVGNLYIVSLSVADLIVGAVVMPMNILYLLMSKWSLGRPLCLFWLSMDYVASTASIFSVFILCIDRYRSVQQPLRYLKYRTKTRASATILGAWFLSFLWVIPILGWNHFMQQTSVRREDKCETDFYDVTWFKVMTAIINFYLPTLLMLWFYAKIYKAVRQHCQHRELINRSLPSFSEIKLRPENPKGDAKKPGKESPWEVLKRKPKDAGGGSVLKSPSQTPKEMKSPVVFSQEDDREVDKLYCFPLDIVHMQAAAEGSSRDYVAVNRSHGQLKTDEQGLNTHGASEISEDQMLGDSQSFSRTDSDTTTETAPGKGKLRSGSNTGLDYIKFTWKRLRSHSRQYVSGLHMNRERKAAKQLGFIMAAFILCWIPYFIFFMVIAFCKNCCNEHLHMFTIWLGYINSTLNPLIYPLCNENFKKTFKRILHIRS

[9] = target: T2, 5-hydroxytryptamine receptor 1A (Homo sapiens) (UniProt P08908); test: Inhibition of 5-HT1A receptor at 10 uM
T2 sequence (whole entry): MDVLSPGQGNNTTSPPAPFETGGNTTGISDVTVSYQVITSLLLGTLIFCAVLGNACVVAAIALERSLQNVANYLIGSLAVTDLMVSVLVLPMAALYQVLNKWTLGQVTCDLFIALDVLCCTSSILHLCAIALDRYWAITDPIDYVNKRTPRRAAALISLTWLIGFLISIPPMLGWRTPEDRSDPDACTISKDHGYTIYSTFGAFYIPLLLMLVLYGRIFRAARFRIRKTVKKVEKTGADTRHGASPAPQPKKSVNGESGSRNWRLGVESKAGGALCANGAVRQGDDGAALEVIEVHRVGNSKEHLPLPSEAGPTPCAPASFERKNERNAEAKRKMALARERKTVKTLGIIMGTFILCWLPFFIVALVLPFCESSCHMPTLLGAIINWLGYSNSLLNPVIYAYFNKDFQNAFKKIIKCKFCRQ

[10] = target: 5-hydroxytryptamine receptor 2A (Homo sapiens) (UniProt P28223); test: Inhibition of 5-HT2A receptor at 10 uM
[11] = target: T3, 5-hydroxytryptamine receptor 2C (Homo sapiens) (UniProt P28335); test: Inhibition of 5-HT2C receptor at 10 uM
T3 sequence (whole entry): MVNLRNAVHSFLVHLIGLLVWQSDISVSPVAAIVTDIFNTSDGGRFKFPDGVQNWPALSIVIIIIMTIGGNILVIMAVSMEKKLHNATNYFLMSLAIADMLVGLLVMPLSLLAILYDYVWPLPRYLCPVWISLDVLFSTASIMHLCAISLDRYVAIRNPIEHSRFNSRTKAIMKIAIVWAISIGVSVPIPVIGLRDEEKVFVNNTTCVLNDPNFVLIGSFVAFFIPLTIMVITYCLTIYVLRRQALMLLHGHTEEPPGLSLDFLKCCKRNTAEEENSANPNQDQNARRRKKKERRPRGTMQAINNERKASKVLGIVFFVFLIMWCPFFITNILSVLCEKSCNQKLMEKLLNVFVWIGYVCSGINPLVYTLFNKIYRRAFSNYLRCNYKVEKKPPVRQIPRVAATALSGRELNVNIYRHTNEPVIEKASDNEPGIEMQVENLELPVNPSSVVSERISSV

[12] = target: 5-hydroxytryptamine receptor 5A (Homo sapiens) (UniProt P47898); test: Inhibition of 5-HT5A receptor at 10 uM
Sequence of 5-hydroxytryptamine receptor 5A (Homo sapiens) (P47898 whole entry): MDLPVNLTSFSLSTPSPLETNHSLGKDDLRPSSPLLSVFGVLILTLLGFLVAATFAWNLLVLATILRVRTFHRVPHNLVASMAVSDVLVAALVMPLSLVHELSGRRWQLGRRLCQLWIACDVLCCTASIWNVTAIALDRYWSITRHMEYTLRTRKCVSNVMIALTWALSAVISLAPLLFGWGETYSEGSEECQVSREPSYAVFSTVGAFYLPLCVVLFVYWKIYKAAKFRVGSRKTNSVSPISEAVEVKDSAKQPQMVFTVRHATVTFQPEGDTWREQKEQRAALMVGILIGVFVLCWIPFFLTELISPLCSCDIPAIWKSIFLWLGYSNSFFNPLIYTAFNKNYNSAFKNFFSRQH

[13] = target: 5-hydroxytryptamine receptor 6 (Homo sapiens) (UniProt P50406); test: Inhibition of 5-HT6 receptor at 10 uM
Sequence of 5-hydroxytryptamine receptor 6 (Homo sapiens) (P50406 whole entry): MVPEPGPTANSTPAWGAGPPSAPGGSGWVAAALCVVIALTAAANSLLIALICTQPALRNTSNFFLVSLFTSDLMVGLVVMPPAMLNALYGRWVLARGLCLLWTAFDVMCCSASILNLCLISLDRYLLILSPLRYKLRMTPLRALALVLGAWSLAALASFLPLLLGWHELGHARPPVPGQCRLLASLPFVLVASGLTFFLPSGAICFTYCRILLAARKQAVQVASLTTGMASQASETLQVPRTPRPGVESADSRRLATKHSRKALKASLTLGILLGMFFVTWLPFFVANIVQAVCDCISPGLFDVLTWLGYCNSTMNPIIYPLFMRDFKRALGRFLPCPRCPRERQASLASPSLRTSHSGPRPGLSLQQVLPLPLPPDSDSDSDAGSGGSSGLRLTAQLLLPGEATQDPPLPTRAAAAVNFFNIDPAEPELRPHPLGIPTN

[14] = target: 5-hydroxytryptamine receptor 7 (Homo sapiens) (UniProt P34969); test: Inhibition of 5-HT7 receptor at 10 uM
Sequence of 5-hydroxytryptamine receptor 7 (Homo sapiens) (P34969 whole entry): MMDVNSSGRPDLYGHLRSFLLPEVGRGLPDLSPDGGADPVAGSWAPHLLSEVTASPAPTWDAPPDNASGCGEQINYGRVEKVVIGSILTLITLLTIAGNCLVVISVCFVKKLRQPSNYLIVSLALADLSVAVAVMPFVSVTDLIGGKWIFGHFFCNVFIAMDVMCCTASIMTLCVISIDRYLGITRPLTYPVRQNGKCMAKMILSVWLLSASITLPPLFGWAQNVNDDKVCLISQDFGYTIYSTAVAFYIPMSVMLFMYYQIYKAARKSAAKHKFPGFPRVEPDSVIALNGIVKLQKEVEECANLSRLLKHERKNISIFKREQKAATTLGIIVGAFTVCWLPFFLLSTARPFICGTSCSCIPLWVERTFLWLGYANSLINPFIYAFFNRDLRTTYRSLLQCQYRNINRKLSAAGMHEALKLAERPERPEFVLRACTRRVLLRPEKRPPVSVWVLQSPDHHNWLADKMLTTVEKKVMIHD

[15] = target: Sodium-dependent serotonin transporter (Homo sapiens) (UniProt P31645); test: Inhibition of 5HT transporter at 10 uM
Sequence of Sodium-dependent serotonin transporter (Homo sapiens) (P31645 whole entry, looked up): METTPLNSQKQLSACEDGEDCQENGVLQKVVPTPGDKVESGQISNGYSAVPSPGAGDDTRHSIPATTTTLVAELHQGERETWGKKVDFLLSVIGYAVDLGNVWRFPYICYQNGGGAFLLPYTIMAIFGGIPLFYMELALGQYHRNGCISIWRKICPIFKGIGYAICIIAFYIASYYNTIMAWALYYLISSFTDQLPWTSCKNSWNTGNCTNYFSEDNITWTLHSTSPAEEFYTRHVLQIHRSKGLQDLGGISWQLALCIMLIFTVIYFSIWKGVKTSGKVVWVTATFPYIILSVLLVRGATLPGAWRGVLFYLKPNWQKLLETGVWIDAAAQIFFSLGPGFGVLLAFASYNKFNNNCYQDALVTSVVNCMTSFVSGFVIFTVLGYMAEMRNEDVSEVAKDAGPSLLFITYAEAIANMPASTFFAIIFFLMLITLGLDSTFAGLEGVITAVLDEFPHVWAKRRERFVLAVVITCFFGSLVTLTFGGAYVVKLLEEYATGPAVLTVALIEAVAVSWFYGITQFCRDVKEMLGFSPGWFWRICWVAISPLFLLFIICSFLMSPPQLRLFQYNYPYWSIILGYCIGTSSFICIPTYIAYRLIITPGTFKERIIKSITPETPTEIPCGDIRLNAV

[16] = target: Muscarinic acetylcholine receptor M3 (Homo sapiens) (UniProt P20309); test: Inhibition of M3 muscarinic receptor at 10 uM
Sequence of Muscarinic acetylcholine receptor M3 (Homo sapiens) (P20309 whole entry, looked up): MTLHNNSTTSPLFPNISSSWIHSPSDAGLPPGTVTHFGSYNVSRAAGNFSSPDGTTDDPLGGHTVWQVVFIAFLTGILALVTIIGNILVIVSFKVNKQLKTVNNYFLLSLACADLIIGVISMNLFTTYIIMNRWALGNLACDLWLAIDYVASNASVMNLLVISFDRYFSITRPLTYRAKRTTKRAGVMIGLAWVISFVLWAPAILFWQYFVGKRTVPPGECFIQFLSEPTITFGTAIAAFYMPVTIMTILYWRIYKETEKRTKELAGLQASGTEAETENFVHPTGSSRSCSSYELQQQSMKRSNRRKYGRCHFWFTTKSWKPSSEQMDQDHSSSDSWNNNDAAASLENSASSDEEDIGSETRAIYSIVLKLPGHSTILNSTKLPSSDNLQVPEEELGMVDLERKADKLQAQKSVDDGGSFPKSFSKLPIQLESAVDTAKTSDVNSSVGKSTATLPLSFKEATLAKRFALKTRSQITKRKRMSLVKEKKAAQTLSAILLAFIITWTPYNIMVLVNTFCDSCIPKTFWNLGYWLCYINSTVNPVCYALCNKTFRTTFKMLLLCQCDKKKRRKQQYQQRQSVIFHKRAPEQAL

[17] = target: T4, Muscarinic acetylcholine receptor M5 (Homo sapiens) (UniProt P08912); test: Inhibition of M5 muscarinic receptor at 10 uM
T4 sequence (whole entry): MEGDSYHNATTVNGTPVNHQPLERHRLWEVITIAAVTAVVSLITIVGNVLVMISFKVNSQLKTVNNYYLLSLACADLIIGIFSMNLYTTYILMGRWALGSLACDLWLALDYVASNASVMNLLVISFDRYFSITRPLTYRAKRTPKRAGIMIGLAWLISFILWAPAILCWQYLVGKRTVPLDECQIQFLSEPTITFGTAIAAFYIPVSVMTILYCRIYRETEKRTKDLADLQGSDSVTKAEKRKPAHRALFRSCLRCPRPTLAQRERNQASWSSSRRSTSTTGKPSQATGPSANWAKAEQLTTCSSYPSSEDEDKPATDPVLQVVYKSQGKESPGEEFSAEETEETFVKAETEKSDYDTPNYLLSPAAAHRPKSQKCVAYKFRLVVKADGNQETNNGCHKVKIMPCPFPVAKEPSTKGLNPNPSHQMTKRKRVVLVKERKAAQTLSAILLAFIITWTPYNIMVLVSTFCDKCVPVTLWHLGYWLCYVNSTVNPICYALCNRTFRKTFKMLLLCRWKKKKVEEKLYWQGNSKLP

[18] = target: Mu-type opioid receptor (Homo sapiens) (UniProt P35372); test: Inhibition of mu opioid receptor at 10 uM

Sequence of D(1A) dopamine receptor (Homo sapiens) (P21728 whole entry): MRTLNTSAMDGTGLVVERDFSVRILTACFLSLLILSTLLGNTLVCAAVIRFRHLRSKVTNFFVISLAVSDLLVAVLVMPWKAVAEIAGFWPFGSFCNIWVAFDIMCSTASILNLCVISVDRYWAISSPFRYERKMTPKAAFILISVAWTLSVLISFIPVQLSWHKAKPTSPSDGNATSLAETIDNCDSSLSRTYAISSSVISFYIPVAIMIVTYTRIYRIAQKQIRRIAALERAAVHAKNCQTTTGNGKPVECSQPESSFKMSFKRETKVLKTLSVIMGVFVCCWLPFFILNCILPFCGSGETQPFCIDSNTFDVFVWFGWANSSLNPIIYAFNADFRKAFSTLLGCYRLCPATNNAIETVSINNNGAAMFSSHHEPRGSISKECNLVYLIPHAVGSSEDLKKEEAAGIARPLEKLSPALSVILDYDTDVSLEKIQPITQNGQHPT
Sequence of Beta-3 adrenergic receptor (Homo sapiens) (P13945 whole entry, looked up): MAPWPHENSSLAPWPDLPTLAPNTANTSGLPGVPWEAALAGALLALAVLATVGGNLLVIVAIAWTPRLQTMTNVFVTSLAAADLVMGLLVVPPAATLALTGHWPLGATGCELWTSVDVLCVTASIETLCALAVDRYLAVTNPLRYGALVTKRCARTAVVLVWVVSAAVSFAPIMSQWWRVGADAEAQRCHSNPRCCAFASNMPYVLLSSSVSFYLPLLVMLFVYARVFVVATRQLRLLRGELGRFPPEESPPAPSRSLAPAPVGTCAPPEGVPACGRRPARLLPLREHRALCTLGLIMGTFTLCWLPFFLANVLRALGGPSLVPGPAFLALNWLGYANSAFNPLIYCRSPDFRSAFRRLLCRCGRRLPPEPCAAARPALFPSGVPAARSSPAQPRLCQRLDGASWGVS

Row | Ki [1] | inhibition [2] | inhibition [3] | inhibition [4] | inhibition [5] | inhibition [6] | inhibition [7] | inhibition [8] | inhibition [9] | inhibition [10] | inhibition [11] | inhibition [12] | inhibition [13] | inhibition [14] | inhibition [15] | inhibition [16] | inhibition [17] | inhibition [18] | Structure (SMILES)
1 | > 10 µM | < 50% | < 50% | < 50% | < 50% | < 50% | < 50% | < 50% | < 50% | < 50% | < 50% | < 50% | < 50% | < 50% | < 50% | < 50% | < 50% | < 50% | CCCCOc1ccc(-c2nn3c(C)cc(C)nc3c2CC(=O)N(CC)CC)cc1
2 | > 10 µM | < 50% | < 50% | < 50% | < 50% | < 50% | < 50% | < 50% | < 50% | < 50% | < 50% | < 50% | < 50% | < 50% | < 50% | < 50% | < 50% | < 50% | CCCOc1ccc(-c2nn3c(C)cc(C)nc3c2CC(=O)N(CC)CC)cc1
3 | > 10 µM | < 50% | < 50% | < 50% | < 50% | < 50% | < 50% | < 50% | < 50% | < 50% | < 50% | < 50% | < 50% | < 50% | < 50% | < 50% | < 50% | < 50% | CCOc1ccc(-c2nn3c(C)cc(C)nc3c2CC(=O)N(CC)CC)cc1
4 | > 10 µM | < 50% | < 50% | < 50% | < 50% | < 50% | < 50% | < 50% | < 50% | < 50% | < 50% | < 50% | < 50% | < 50% | < 50% | < 50% | < 50% | < 50% | C#CCOc1ccc(-c2nn3c(C)cc(C)nc3c2CC(=O)N(CC)CC)cc1
